Results from ChEMBL document CHEMBL5143608, “Peptide-based long-acting co-agonists of GLP-1 and cholecystokinin 1 receptors as novel anti-diabesity agents” (Eur J Med Chem, 2022).
Where a SMILES comes first, the peptide text is derived from it. [ ]: non-standard residue; d: D form. ξ: configuration not given here. ξpGlu = O=C1CCC(C(=O)O)N1

What was measured:
[1] = tested on: Mus musculus; assay: Anti-diabesity activity against high fat diet-induced DIO C57BL/6 mouse model assessed as decrease in body weight at 25 nmol/kg, sc administered for 2 weeks; type: functional; details: C57BL/6, 336 h, time 14 day
[2] = molecular target: T1, Gastrin/cholecystokinin type B receptor (Homo sapiens, UniProt P32239); assay: Agonist activity at human CCK2R expressed in HEK293 cells assessed as ERK1/2 phosphorylation incubated for 5 mins by AlphaScreen assay; type: functional, cell-based
T1 sequence (P32239 whole entry): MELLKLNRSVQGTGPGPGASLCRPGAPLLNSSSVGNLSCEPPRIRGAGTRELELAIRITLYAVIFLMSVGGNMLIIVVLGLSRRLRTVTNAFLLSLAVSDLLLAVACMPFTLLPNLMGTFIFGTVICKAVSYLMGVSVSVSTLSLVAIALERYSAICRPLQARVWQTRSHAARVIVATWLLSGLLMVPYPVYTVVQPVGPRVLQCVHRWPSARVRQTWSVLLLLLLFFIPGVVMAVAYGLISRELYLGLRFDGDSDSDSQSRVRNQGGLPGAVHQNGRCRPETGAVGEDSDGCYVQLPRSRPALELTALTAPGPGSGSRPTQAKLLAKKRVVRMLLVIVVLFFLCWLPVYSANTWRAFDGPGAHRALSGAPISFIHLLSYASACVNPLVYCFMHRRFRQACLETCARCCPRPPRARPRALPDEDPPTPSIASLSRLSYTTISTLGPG

[3] = molecular target: T2, Cholecystokinin receptor type A (Homo sapiens, UniProt P32238); assay: Agonist activity at human CCK1R expressed in HEK293 cells assessed as ERK1/2 phosphorylation incubated for 5 mins by AlphaScreen assay; type: functional, cell-based
T2 sequence (P32238 whole entry): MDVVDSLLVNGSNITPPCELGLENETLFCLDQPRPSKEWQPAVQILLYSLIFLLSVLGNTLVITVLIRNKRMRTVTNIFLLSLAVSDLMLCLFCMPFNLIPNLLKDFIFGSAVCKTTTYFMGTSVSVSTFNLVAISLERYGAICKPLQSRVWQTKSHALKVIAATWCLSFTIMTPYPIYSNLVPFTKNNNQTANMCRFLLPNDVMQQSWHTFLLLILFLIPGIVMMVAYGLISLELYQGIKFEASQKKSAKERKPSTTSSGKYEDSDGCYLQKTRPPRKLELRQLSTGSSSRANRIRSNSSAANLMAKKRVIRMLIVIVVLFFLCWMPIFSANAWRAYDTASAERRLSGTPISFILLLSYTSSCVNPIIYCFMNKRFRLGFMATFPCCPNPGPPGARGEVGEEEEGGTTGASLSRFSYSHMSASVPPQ

[4] = Pancreatic insult activity in db/db mouse assessed as increase in lipase level in serum at 25 nmol/kg, sc administered every 2 days for 12 weeks; type: toxicity, organism-based; details: in vivo, 2016 h
[5] = Pancreatic insult activity in db/db mouse assessed as increase in amylase level in serum at 25 nmol/kg, sc administered every 2 days for 12 weeks; type: toxicity, organism-based; details: in vivo, 2016 h

## CCCCCCCCCCCCCCCC(=O)N[C@@H](CCC(=O)NCCCC[C@H](NC(=O)[C@H](C)NC(=O)[C@H](C)NC(=O)[C@H](CCC(N)=O)NC(=O)CNC(=O)[C@H](CCC(=O)O)NC(=O)[C@H](CC(C)C)NC(=O)[C@H](Cc1ccc(O)cc1)NC(=O)[C@H](CO)NC(=O)[C@H](CO)NC(=O)[C@@H](NC(=O)[C@H](CC(=O)O)NC(=O)[C@H](CO)NC(=O)[C@@H](NC(=O)[C@H](Cc1ccccc1)NC(=O)[C@@H](NC(=O)CNC(=O)[C@H](CCC(=O)O)NC(=O)[C@H](C)NC(=O)[C@@H](N)Cc1cnc[nH]1)[C@@H](C)O)[C@@H](C)O)C(C)C)C(=O)N[C@@H](CCC(=O)O)C(=O)N[C@@H](Cc1ccccc1)C(=O)N[C@H](C(=O)N[C@@H](C)C(=O)N[C@@H](Cc1c[nH]c2ccccc12)C(=O)N[C@@H](CC(C)C)C(=O)N[C@H](C(=O)N[C@@H](CCCNC(=N)N)C(=O)NCC(=O)N[C@@H](CCCNC(=N)N)C(=O)NCC(=O)O)C(C)C)[C@@H](C)CC)C(=O)O [LIRAGLUTIDE]
[1]
  inhibition in vivo at 0.025 µmol/kg: 9.8%

## CC(C)C[C@H](NC(=O)[C@H](Cc1c[nH]c2ccccc12)NC(=O)CNC(=O)[C@H](Cc1ccc(O)cc1)NC(=O)[C@H](C)NC(=O)[C@H](CCC(=O)O)NC(=O)[C@H](CCC(=O)O)NC(=O)[C@H](CCC(=O)O)NC(=O)[C@H](CCC(=O)O)NC(=O)[C@H](CCC(=O)O)NC(=O)[C@H](CC(C)C)NC(=O)[C@H](Cc1c[nH]c2ccccc12)NC(=O)[C@@H]1CCCN1C(=O)CNC(=O)C1CCC(=O)N1)C(=O)N[C@@H](CC(=O)O)C(=O)N[C@@H](Cc1ccccc1)C(N)=O (stereo not given in full) ([ξpGlu]GPWLEEEEEAYGWLDF-NH2)
[2]
  EC50: 2.4 nM
[3]
  EC50: > 100 nM

## SEMAGLUTIDE
[4]
  Activity: Toxic
[5]
  Activity: Toxic
